Assay results reported in patent US10493046B2, “5-hydroxytryptamine 1B receptor-stimulating agent for use as a promoter of satellite cells self-renewal and/or differentiation” (INSTITUT PASTEUR, priority 2015, dated 2019).

Key:
vessels = assay: Vessel number in tibialis anterior of treated mice (Flk1GFP/+ or CD31 immunostaining); type: in vivo, mouse; details: GR127935 in osmotic pump together with vortioxetine I.P 12 days
satellite cells [1] = assay: Satellite cell (SC) number in tibialis anterior of treated mice (histological count or FACS cytometry); type: in vivo, mouse; details: GR127935 in osmotic pump together with vortioxetine I.P 12 days; Tg:Pax7nGFP mice
Experimental: For satellite cell counting, only the tibialis anterior muscle was dissected and digested as described earlier, and the totality of the tube was analysed to assess the number of satellite cells per muscle. FACS analysis was done using a FACSasia (Beckman). All analyses and quantitation were performed using Summit v4.3 software from DakoCytomation and FloJo software. […]
In order to count the number of satellite cells, the tibialis anterior (TA) of Tg:Pax7nGFP mice were digested and analysed by FACS in placebo and vortioxetine (12 days, 20 mg/Kg) treated mice. […] After 3 weeks of vortioxetine treatment, the number of satellite cells was even higher (9351 satellite cells±706, p=0.0079) but no statistically significant differences were found between 12 days and 3 weeks of treatment (p=0.15).

CD31 expressing cells = assay: Ex vivo Matrigel angiogenesis assay (subcutaneous plugs); type: in vivo, mouse; details: C57Bl/6 treated P.O for 6 weeks
Text: To further confirm the above results, an ex vivo Matrigel angiogenesis assay was used. To do so, a cold Matrigel was introduced subcutaneously, which solidifies and allows the penetration by host cells and the formation of new blood vessels in C57Bl/6 treated P.O for 6 weeks.

HUVEC = assay: In vitro HUVEC assay on cytodex beads in plasma of treated mice; type: cell-based, human; details: plasma from mice treated P.O 6 weeks; 4 days post plating
Experimental: C57Bl/6 mice were treated P.O for 6 weeks and plasma was extracted from blood. HUVEC cells were then plated on cytodex beads and cultured in either of the plasma. The growth of HUVEC incubated with plasma coming from treated animals was faster 4 days post plating (p≤0.0001) (FIGS. 2m-o).

cytokines [2] = assay: Plasmatic cytokine levels by Luminex in treated mice; design: species or system mouse; details: fluoxetine 6 weeks in vivo; vs placebo
Text: Snap frozen plasma samples (n=6 per condition) were thawed out, and supernatant was processed for Luminex® multiple cytokine and chemokine analysis (Bio-Plex® Pro™ Mouse Cytokine Standard 23-Plex, Group I and Standard 9-Plex, Group II). Normalization was done by sample weight of frozen muscle. […]

cytokines [3] = assay: Plasmatic cytokine levels by Luminex in Mdx mice; type: in vivo, mouse; details: fluoxetine P.O. 6 weeks
Text: Snap frozen plasma samples (n=6 per condition) were thawed out, and supernatant was processed for Luminex® multiple cytokine and chemokine analysis (Bio-Plex® Pro™ Mouse Cytokine Standard 23-Plex, Group I and Standard 9-Plex, Group II). Normalization was done by sample weight of frozen muscle.

[4] = test system: serotonin receptors subtypes; assay: RT-qPCR of serotonin receptor subtypes in FACS-sorted muscle cells after treatment; type: in vivo, mouse; details: 6 weeks P.O fluoxetine; FACS-sorted endothelial cells
Experimental: Total RNA was isolated from cells using the RNAeasy Micro kit (Qiagen). The total RNA was reverse-transcribed using Superscript® III Reverse transcriptase (Invitrogen). Real-time quantitative PCR was performed using Power Sybr Green PCR Master Mix (Applied Biosystems) and the rate of dye incorporation was monitored using the StepOne™ Plus RealTime PCR system (Applied Biosystems). At least three biological replicates were used for each condition. Data were analyzed by StepOne Plus RT PCR software v2.1 and Microsoft excel. GAPDH transcript levels were used for normalisation of each target (=ΔCT). Real-time PCR CT values were analyzed using the 2-(ΔΔCt) method to calculate the fold expression (ΔΔCTmethod, Livak et al., 2001).
RT-qPCR was then performed on serotonin receptors subtypes to further characterize by which the endothelial cells could be activated (FIG. 5b). […] The same observation was made in FACS cell-sorted SC from Tg:Pax7nGFP mice (FIG. 5b).

satellite cells [5] = assay: BrdU cell division of satellite cells during treatment; type: in vivo, mouse; details: BrdU during the entire per os treatment
Text: (a) Schematic representation of fluoxetine delivery and sacrifice time points. (b) Number of satellite cells per mm^2 on section. […] The arrows point to the satellite cells. […] (k-l) Representative image of a vessel (arrows) in the Matrigel plug detected by HE staining in placebo (k) or fluoxetine (l) treated mice. (m) Vessel length 4 days post-plating of Cytodex® beads covered with HUVEC. (n) Representative image of a Cytodex® bead 4 days-post plating in presence of placebo plasma. […] Using immunostainings and FACS cell sorting in Figures (p) to (v): (p) Number of Pax7GFP expressing cells per digested TA (expressed as an absolute number) counted by FACS. (q) Representative FACS profile of digested TA of TgPax7nGFP mouse. […] TA muscle was digested and cells were isolated by FACS, spined on a slide and immuno-stained against BrdU. (s) Percentage of BrdU+ cells in Tg:Pax7nGFP mice (n=3 per time point). […] Data are represented as mean±s.d. *P<0.05; **P<0.01; ***P<0.001. Scale bar represents 100 μm. For Figures (p) to (v): n=7 mice used per condition, except for BrdU experiments n=3 per time point. Data are represented as mean±s.d. **P<0.01. Scale bar represents 100 μm.

SMILES | Number of vessels (vessels) | Number of SC (satellite cells [1]) | Number of CD31 expressing cells in Matrigel plugs (CD31 expressing cells) | Growth of HUVEC vs placebo plasma (HUVEC) | Levels of IL-1a, IL-1b, IL-2 and eotaxin (cytokines [2]) | Levels of IL-4 and IL-13 (cytokines [2]) | Level of IL6 (cytokines [3]) | Level of IL10 (cytokines [3]) | Expression of other subtypes (5-HT1 AR, 5-HT1 DR, 5-HT1 FR, 5-HT2 AR, 5-HT2 CR) [4] | SC population dividing (BrdU) (satellite cells [5])
COc1ccc(NC(=O)c2ccc(-c3ccc(-c4noc(C)n4)cc3C)cc2)cc1N1CCN(C)CC1 [GR127935] | 928±207 vessels per mm^2 | 5540±411 SC per TA |  |  |  |  |  |  |  | 
CNCCC(Oc1ccc(C(F)(F)F)cc1)c1ccccc1 (stereo not shown) [fluoxetine] |  |  | 72.9±22.6 CD31+ cells per mm^2 | faster | downregulated | upregulated | 34.52 ± 21 pg/mL | 99.6 ± 56 pg/mL | non-statistically significant increase | 90%
